Series [1] concerns the target T1, human cytochrome P450 (CYP) 2C9 (Homo sapiens, UniProt P11712).
T1 construct: made in house; host or cells: yeast (microsomal fraction)
Kind of series: Cytochrome P450 Inhibition Assay, CYP 2C9. To be noted: test compound 0.1-10 μM, substrate MFC. The class given is in vitro ADME. How it is done:
(§1) Cytochrome P450 Inhibition Assay
Microsomal subcellular fractions prepared from Yeast cell lines expressing each human CYP isoform were used as an enzyme source in this assay. The activity of the 5 major human CYPs was determined from the biotransformation of a number of coumarin substrates to fluorescent metabolites, in the presence of NADPH. […] Stock solutions of each CYP, with its respective substrate, were prepared in phosphate buffer pH 7.4 (see Table 1) and 178 μl was added to the well of a black solid, flat bottom, 300 μl 96 well microtitre plate (Corning Costar). […] After pre-incubating at 37° C. for 5 min the reactions were started with addition of NADPH (20 μl, concentration shown in Table 1). The final solvent content in each incubation was <=2% (1% from the test compound and a maximum of 1% from the substrate). The appropriate solvent controls and substrate blanks were included in each experiment to assess control activity and identify any inherent fluorescence due to the test compounds. In addition, known inhibitors of each CYP were included as positive controls (see Table 3 for inhibitor concentrations and expected IC50 ranges). […] The plates were read on a fluorimeter (Spectrafluor Plus) at the appropriate excitation and emission wavelengths (listed in Table 2) and the percent activity, corrected for control, was plotted against the test compound concentration.

In series [2] the target is T2, human cytochrome P450 (CYP) 1A2 (Homo sapiens, UniProt P05177).
T2 construct: made in house; host or cells: yeast (microsomal fraction)
T2 sequence (P05177 1-516): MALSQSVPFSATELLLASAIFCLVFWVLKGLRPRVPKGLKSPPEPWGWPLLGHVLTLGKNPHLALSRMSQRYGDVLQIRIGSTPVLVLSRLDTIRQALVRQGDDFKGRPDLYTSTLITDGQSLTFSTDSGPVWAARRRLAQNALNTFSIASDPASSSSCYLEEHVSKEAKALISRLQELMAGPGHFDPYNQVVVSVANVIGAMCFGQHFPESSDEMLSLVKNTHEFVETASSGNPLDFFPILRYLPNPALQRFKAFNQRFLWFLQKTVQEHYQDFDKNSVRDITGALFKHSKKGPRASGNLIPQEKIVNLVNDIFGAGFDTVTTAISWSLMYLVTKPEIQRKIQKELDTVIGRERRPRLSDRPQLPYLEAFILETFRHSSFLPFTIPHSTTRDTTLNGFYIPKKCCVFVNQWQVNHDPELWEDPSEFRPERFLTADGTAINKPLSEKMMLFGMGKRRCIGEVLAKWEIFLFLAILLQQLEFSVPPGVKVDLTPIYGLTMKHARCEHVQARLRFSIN
Kind of series: Cytochrome P450 Inhibition Assay, CYP 1A2. The class given is in vitro ADME. The note with it: test compound 0.1-10 μM, substrate CEC. How it is done:
as §1
The inhibitory potential (IC50) of test compounds against 5 human cytochrome P450 (CYP) isoforms (1A2, 2C9, 2C19, 3A4 and 2D6) was assessed using an automated fluorescent end point in vitro assay modified from Crespi (Crespi and Stresser, J Pharmacol Toxicol Methods 2000, 44: 325-331). Microsomal subcellular fractions prepared from Yeast cell lines expressing each human CYP isoform were used as an enzyme source in this assay. The activity of the 5 major human CYPs was determined from the biotransformation of a number of coumarin substrates to fluorescent metabolites, in the presence of NADPH. […] Comparison of the fluorescence observed in the presence of varying concentrations of test compound with that seen in its absence allowed an IC50 value to be calculated. […] The appropriate solvent controls and substrate blanks were included in each experiment to assess control activity and identify any inherent fluorescence due to the test compounds. […] The plates were read on a fluorimeter (Spectrafluor Plus) at the appropriate excitation and emission wavelengths (listed in Table 2) and the percent activity, corrected for control, was plotted against the test compound concentration.

The nature of series [3]: Clearance (pharmacokinetics) in dogs. The class given is in vivo. To be noted: dog, whole blood, dose 0.927 mg/kg (2 umol/kg); for Vd: read-out: Vss. On the procedure:
For the dog dose of 0.927 mg/kg (2 umol/kg), the compounds were formulated in 10% DMSO:90% hydroxyl-propyl-β-cyclodextrin (25% w/v) in sorensens buffer pH 5 at 2 umol/ml. Each formulation was dosed (1 mL/kg) to a male and female dog (8-15 kg) which had been fasted overnight. Blood samples were taken via the jugular vein at 5, 10, 20 and 40 minutes, and 1, 2, 4, 6, 12 and 24 hours post dose. The blood samples were diluted 1:1 with water prior to anaylsis.
A set of 10 calibration standards covering the concentration range (0.001 umol/L to 10 umol/L) were prepared by spiking blank matrix (1:1 blood:water). The samples and standards were extracted using a solid phase extraction plate, blown down under nitrogen, and then reconstituted in methanol:water (20:80). The samples were analysed using LC-MSMS and the results obtained were used to determine the area under the curve from time 0 to infinity [AUC0-inf (ug.hr/ml)], clearance [Cl (ml/min/kg)] and the steady state volume distribution [Vss (L/kg)] for each compound.

Read-outs that look alike come from different tables or passages of the source. Some results are limits rather than exact numbers.

T1 sequence (P11712 whole entry): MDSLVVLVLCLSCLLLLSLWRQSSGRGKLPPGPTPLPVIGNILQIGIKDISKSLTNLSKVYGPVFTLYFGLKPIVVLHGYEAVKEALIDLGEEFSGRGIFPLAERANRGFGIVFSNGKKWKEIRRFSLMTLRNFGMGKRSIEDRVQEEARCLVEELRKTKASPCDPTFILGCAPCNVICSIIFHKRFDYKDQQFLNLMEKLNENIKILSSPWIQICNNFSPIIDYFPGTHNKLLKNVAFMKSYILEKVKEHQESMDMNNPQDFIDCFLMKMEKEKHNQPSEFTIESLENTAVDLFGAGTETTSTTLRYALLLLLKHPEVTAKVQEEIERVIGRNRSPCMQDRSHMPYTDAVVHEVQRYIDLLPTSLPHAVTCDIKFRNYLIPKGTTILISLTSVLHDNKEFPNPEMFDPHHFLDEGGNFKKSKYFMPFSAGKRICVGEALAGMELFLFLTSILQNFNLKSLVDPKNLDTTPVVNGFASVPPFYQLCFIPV

As usually defined, the IC50 is the concentration needed to halve the response being measured. One may read the AUC(0-inf) as the area under the concentration-time curve extrapolated to infinity. High values mean high exposure, low ones low exposure. The clearance is the rate of elimination divided by the concentration. Higher therefore signals a high capacity for elimination. `COc1cc(CCc2cc(NC(=O)c3ccc(N4CCN(C)[C@@H](C)C4)cc3)[nH]n2)cc(OC)c1` [Example 1a, (S)—N-(3-(3,5-Dimethoxyphenethyl)-1H-pyrazol-5-yl)-4-(3,4-dimethylpiperazin-1-yl)benzamide]: the IC50 in series [1] was 3.76 µM. This compound also displayed an IC50 in series [2] above 10 µM. Moreover, in series [3] (female dogs), the total exposure AUC(0-inf) was determined as 0.427 µg·h/mL, the clearance worked out at 2.17 L/h/kg and the Vd turned out to be 7.08 L/kg. In addition, in series [3] (male dogs), the AUC(0-inf) came out at 0.585 µg·h/mL, the clearance is 1.58 L/h/kg and the Vd worked out at 3.71 L/kg.
Consider `COc1cc(CCc2cc(NC(=O)c3ccc(N4CCN(C)[C@H](C)C4)cc3)[nH]n2)cc(OC)c1` [Example 1b, (R)—N-(3-(3,5-Dimethoxyphenethyl)-1H-pyrazol-5-yl)-4-(3,4-dimethylpiperazin-1-yl)benzamide], for which the midpoint of inhibition in series [1], the IC50, lay at 9.12 µM. The concentration for half-maximal inhibition (IC50) in series [2] is above 10 µM. In series [3] (female dogs), the area under the curve AUC(0-inf) was found to be 1.35 µg·h/mL, the clearance stood at 0.69 L/h/kg and the Vd stood at 1.71 L/kg. Further, in series [3] (male dogs), the AUC(0-inf) turned out to be 1.24 µg·h/mL, the clearance was 0.75 L/h/kg and the Vd was found to be 6.55 L/kg.

Source of the values: patent publication US20090318468A1, “PYRAZOLE COMPOUNDS 436” (AstraZeneca AB, priority 2008, published 2009).
